The record followed here is ChEMBL document CHEMBL1133786, “Synthesis and dopaminergic properties of the two enantiomers of 3-(3,4-dimethylphenyl)-1-propylpiperidine, a potent and selective dopamine D4 receptor ligand” (Bioorg Med Chem Lett, 2001).

For assay [1], the target named is D(1A) dopamine receptor (Bos taurus, UniProt Q95136). The assay is described as follows: Binding affinity for dopamine D1-like receptor labelled with [3H]SCH-23390 in retina. The assay is classed as tissue-based.
Assay [2] can be described thus: Binding affinity for dopamine D2-D3 like receptor labelled with [3H]YM-09151-2 in striatum. The assay is classed as tissue-based, Bos taurus.
A short description of assay [3]: Binding affinity for dopamine D4-like receptor labelled with [3H]YM-09151-2 in retina. The assay is classed as tissue-based, Bos taurus.

Sequence of D(1A) dopamine receptor (Q95136 whole entry): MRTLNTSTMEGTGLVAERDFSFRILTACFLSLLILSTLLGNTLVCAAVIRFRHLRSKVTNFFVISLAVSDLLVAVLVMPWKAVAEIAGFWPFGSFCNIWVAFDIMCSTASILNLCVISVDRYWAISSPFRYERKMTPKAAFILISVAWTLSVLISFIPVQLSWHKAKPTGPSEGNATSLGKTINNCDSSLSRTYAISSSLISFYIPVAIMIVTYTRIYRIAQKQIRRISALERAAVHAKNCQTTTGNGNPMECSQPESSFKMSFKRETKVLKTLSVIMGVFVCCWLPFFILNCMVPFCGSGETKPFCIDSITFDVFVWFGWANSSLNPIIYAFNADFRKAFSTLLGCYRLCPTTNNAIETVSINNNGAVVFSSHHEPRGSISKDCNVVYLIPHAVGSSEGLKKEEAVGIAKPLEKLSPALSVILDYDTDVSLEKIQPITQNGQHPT

As for `CCCN1CCC[C@@H](c2ccc(C)c(C)c2)C1`, the values for the Ki in assay [1], in assay [2] and in assay [3] were more than 100000 nM, 5000 nM and 23 nM, respectively.

Turning to `CCCN1CCC[C@H](c2ccc(C)c(C)c2)C1`, the Ki in assay [1] was more than 100000 nM; in assay [2], more than 100000 nM; in assay [3], 4 nM.

With `CCCN1CCCC(c2ccc(C)c(C)c2)C1` (centres undefined), the values for the inhibition constant Ki in assay [1], in assay [2] and in assay [3] were more than 100000 nM, 11000 nM and 10 nM, respectively.

Turning to `CCCN1CCC[C@H](c2cccc(O)c2)C1`, the Ki is 404 nM in assay [2] and 397 nM in assay [3].

On to `NCCc1ccc(O)c(O)c1` [DOPAMINE], for which the figures for the Ki in assay [2] and in assay [3] were 130 nM and 15 nM, respectively.

For `Cc1cccc(C(=O)NCN2CCN(c3ccccc3C#N)CC2)c1` [PD-168,077], the Ki was found to be 18300 nM in assay [2] and 25 nM in assay [3].

With `CCCN1CCC[C@@H](c2cccc(O)c2)C1` [PRECLAMOL], the Ki worked out at 8 nM in assay [2] and 187 nM in assay [3].

`CCCN1CCC[C@@H]2Cc3n[nH]cc3C[C@H]21` [QUINPIROLE]: the values for the Ki in assay [2] and in assay [3] were 241 nM and 59 nM, respectively.

A word on the Ki: it is the equilibrium dissociation constant of an inhibitor or competing ligand from its target. The low end stands for tighter binding, the high end for weaker binding.
